Measured values taken from PubChem BioAssay (NCI).
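Each compound was tested at five concentrations against cells in 96-well plates for 48 hours. At the GI50, growth is halved. TGI is the concentration that stops growth completely.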

Columns and labels:
Assay in all cases: growth of human tumour cells (NCI), 48 h
786-0 renal = tested on: 786-0 renal
A498 renal = tested on: A498 renal
A549 NSCLC = tested on: A549 NSCLC
ACHN renal = tested on: ACHN renal
BT-549 breast = tested on: BT-549 breast
CCRF-CEM leukemia = tested on: CCRF-CEM leukemia
COLO 205 colon = tested on: COLO 205 colon
DU-145 prostate = tested on: DU-145 prostate
HCC-2998 colon = tested on: HCC-2998 colon
HCT-116 colon = tested on: HCT-116 colon
HCT-15 colon = tested on: HCT-15 colon
HL-60(TB) leukemia = tested on: HL-60(TB) leukemia
HOP-62 NSCLC = tested on: HOP-62 NSCLC
HOP-92 NSCLC = tested on: HOP-92 NSCLC
HT29 colon = tested on: HT29 colon
IGROV1 ovarian = tested on: IGROV1 ovarian
K-562 leukemia = tested on: K-562 leukemia
KM12 colon = tested on: KM12 colon
LOX IMVI melanoma = tested on: LOX IMVI melanoma
M14 melanoma = tested on: M14 melanoma
MALME-3M melanoma = tested on: MALME-3M melanoma
MCF7 breast = tested on: MCF7 breast
MDA-MB-231 breast = tested on: MDA-MB-231 breast
MDA-MB-435 = tested on: MDA-MB-435
MOLT-4 leukemia = tested on: MOLT-4 leukemia
NCI-H226 lung = tested on: NCI-H226 lung
NCI-H23 lung = tested on: NCI-H23 lung
NCI-H460 lung = tested on: NCI-H460 lung
NCI-H522 lung = tested on: NCI-H522 lung
NCI/ADR-RES ovarian = tested on: NCI/ADR-RES ovarian
OVCAR-3 ovarian = tested on: OVCAR-3 ovarian
OVCAR-4 ovarian = tested on: OVCAR-4 ovarian
OVCAR-5 ovarian = tested on: OVCAR-5 ovarian
OVCAR-8 ovarian = tested on: OVCAR-8 ovarian
PC-3 prostate = tested on: PC-3 prostate
RPMI-8226 leukemia = tested on: RPMI-8226 leukemia
RXF 393 renal = tested on: RXF 393 renal
SF-268 CNS = tested on: SF-268 CNS
SF-295 CNS = tested on: SF-295 CNS
SF-539 CNS = tested on: SF-539 CNS
SK-MEL-2 melanoma = tested on: SK-MEL-2 melanoma
SK-MEL-28 melanoma = tested on: SK-MEL-28 melanoma
SK-MEL-5 melanoma = tested on: SK-MEL-5 melanoma
SK-OV-3 ovarian = tested on: SK-OV-3 ovarian
SN12C renal = tested on: SN12C renal
SNB-19 CNS = tested on: SNB-19 CNS
SNB-75 CNS = tested on: SNB-75 CNS
SR leukemia = tested on: SR leukemia
SW-620 colon = tested on: SW-620 colon
T-47D breast = tested on: T-47D breast
TK-10 renal = tested on: TK-10 renal
U251 CNS = tested on: U251 CNS
UACC-257 melanoma = tested on: UACC-257 melanoma
UACC-62 melanoma = tested on: UACC-62 melanoma
UO-31 renal = tested on: UO-31 renal

Q: How did the GI50 (786-0 renal) turn out when `COc1cc(-c2cncn2-c2ccc(-c3nc4ccc(F)cc4s3)cc2)ccc1F` was run?
A: 36.1 µM

Q: What about the TGI (786-0 renal) of the same compound?
A: > 100 µM

Q: And the GI50 (A498 renal)?
A: 0.0432 µM

Q: And the TGI (A498 renal)?
A: 16.9 µM

Q: And the GI50 (A549 NSCLC)?
A: 12.3 µM

Q: What about the TGI (A549 NSCLC) of the same compound?
A: > 100 µM

Q: And the GI50 (ACHN renal)?
A: 29.1 µM

Q: What about the TGI (ACHN renal) of the same compound?
A: > 100 µM

Q: What about the GI50 (BT-549 breast) of the same compound?
A: 11.5 µM

Q: What about the TGI (BT-549 breast) of the same compound?
A: 79 µM

Q: What about the GI50 (CCRF-CEM leukemia) of the same compound?
A: 6.92 µM

Q: And the TGI (CCRF-CEM leukemia)?
A: > 100 µM

Q: And the GI50 (COLO 205 colon)?
A: 56.8 µM

Q: And the TGI (COLO 205 colon)?
A: > 100 µM

Q: What about the GI50 (DU-145 prostate) of the same compound?
A: 14.3 µM

Q: What about the TGI (DU-145 prostate) of the same compound?
A: 73.3 µM

Q: And the GI50 (HCC-2998 colon)?
A: > 100 µM

Q: What about the TGI (HCC-2998 colon) of the same compound?
A: > 100 µM

Q: And the GI50 (HCT-116 colon)?
A: 4.36 µM

Q: What about the TGI (HCT-116 colon) of the same compound?
A: 38.7 µM

Q: What about the GI50 (HCT-15 colon) of the same compound?
A: 82.3 µM

Q: And the TGI (HCT-15 colon)?
A: > 100 µM

Q: And the GI50 (HL-60(TB) leukemia)?
A: 2.5 µM

Q: And the TGI (HL-60(TB) leukemia)?
A: 7.37 µM

Q: What about the GI50 (HOP-62 NSCLC) of the same compound?
A: 40.7 µM

Q: What about the TGI (HOP-62 NSCLC) of the same compound?
A: > 100 µM

Q: What about the GI50 (HOP-92 NSCLC) of the same compound?
A: 5.47 µM

Q: What about the TGI (HOP-92 NSCLC) of the same compound?
A: 91.8 µM

Q: What about the GI50 (HT29 colon) of the same compound?
A: 10.8 µM

Q: And the TGI (HT29 colon)?
A: > 100 µM

Q: And the GI50 (IGROV1 ovarian)?
A: 15.4 µM

Q: And the TGI (IGROV1 ovarian)?
A: 47.7 µM

Q: What about the GI50 (K-562 leukemia) of the same compound?
A: 3.93 µM

Q: And the TGI (K-562 leukemia)?
A: > 100 µM

Q: And the GI50 (KM12 colon)?
A: 6.4 µM

Q: And the TGI (KM12 colon)?
A: > 100 µM

Q: And the GI50 (LOX IMVI melanoma)?
A: 35.9 µM

Q: And the TGI (LOX IMVI melanoma)?
A: > 100 µM

Q: What about the GI50 (M14 melanoma) of the same compound?
A: 33.4 µM

Q: And the TGI (M14 melanoma)?
A: > 100 µM

Q: And the GI50 (MALME-3M melanoma)?
A: 11.1 µM

Q: And the TGI (MALME-3M melanoma)?
A: > 100 µM

Q: What about the GI50 (MCF7 breast) of the same compound?
A: 23.5 µM

Q: And the TGI (MCF7 breast)?
A: > 100 µM

Q: And the GI50 (MDA-MB-231 breast)?
A: 32.2 µM

Q: What about the TGI (MDA-MB-231 breast) of the same compound?
A: > 100 µM

Q: And the GI50 (MDA-MB-435)?
A: 17.1 µM

Q: What about the TGI (MDA-MB-435) of the same compound?
A: > 100 µM

Q: What about the GI50 (MOLT-4 leukemia) of the same compound?
A: 3.41 µM

Q: And the TGI (MOLT-4 leukemia)?
A: > 100 µM

Q: And the GI50 (NCI-H226 lung)?
A: 49.3 µM

Q: What about the TGI (NCI-H226 lung) of the same compound?
A: > 100 µM

Q: And the GI50 (NCI-H23 lung)?
A: 8.25 µM

Q: And the TGI (NCI-H23 lung)?
A: > 100 µM

Q: And the GI50 (NCI-H460 lung)?
A: 5.7 µM

Q: And the TGI (NCI-H460 lung)?
A: 20.7 µM

Q: And the GI50 (NCI-H522 lung)?
A: 9.9 µM

Q: And the TGI (NCI-H522 lung)?
A: 37.2 µM

Q: And the GI50 (NCI/ADR-RES ovarian)?
A: 30.6 µM

Q: What about the TGI (NCI/ADR-RES ovarian) of the same compound?
A: > 100 µM

Q: What about the GI50 (OVCAR-3 ovarian) of the same compound?
A: 5.71 µM

Q: What about the TGI (OVCAR-3 ovarian) of the same compound?
A: 37.3 µM

Q: And the GI50 (OVCAR-4 ovarian)?
A: 11.4 µM

Q: And the TGI (OVCAR-4 ovarian)?
A: > 100 µM

Q: What about the GI50 (OVCAR-5 ovarian) of the same compound?
A: > 100 µM

Q: What about the TGI (OVCAR-5 ovarian) of the same compound?
A: > 100 µM

Q: What about the GI50 (OVCAR-8 ovarian) of the same compound?
A: 15.2 µM

Q: And the TGI (OVCAR-8 ovarian)?
A: > 100 µM

Q: What about the GI50 (PC-3 prostate) of the same compound?
A: 3.47 µM

Q: What about the TGI (PC-3 prostate) of the same compound?
A: > 100 µM

Q: What about the GI50 (RPMI-8226 leukemia) of the same compound?
A: 4.11 µM

Q: And the TGI (RPMI-8226 leukemia)?
A: > 100 µM

Q: What about the GI50 (RXF 393 renal) of the same compound?
A: 13.5 µM

Q: What about the TGI (RXF 393 renal) of the same compound?
A: > 100 µM

Q: What about the GI50 (SF-268 CNS) of the same compound?
A: 31.2 µM

Q: And the TGI (SF-268 CNS)?
A: > 100 µM

Q: And the GI50 (SF-295 CNS)?
A: 12.7 µM

Q: And the TGI (SF-295 CNS)?
A: > 100 µM

Q: What about the GI50 (SF-539 CNS) of the same compound?
A: 75.9 µM

Q: And the TGI (SF-539 CNS)?
A: > 100 µM

Q: And the GI50 (SK-MEL-2 melanoma)?
A: 39.7 µM

Q: And the TGI (SK-MEL-2 melanoma)?
A: > 100 µM

Q: What about the GI50 (SK-MEL-28 melanoma) of the same compound?
A: 35.1 µM

Q: What about the TGI (SK-MEL-28 melanoma) of the same compound?
A: > 100 µM

Q: And the GI50 (SK-MEL-5 melanoma)?
A: 12.1 µM

Q: And the TGI (SK-MEL-5 melanoma)?
A: > 100 µM

Q: And the GI50 (SK-OV-3 ovarian)?
A: > 100 µM

Q: And the TGI (SK-OV-3 ovarian)?
A: > 100 µM

Q: What about the GI50 (SN12C renal) of the same compound?
A: 31.9 µM

Q: And the TGI (SN12C renal)?
A: > 100 µM

Q: And the GI50 (SNB-19 CNS)?
A: > 100 µM

Q: And the TGI (SNB-19 CNS)?
A: > 100 µM

Q: What about the GI50 (SNB-75 CNS) of the same compound?
A: 20.6 µM

Q: And the TGI (SNB-75 CNS)?
A: 52.2 µM

Q: What about the GI50 (SR leukemia) of the same compound?
A: 4.99 µM

Q: What about the TGI (SR leukemia) of the same compound?
A: > 100 µM

Q: What about the GI50 (SW-620 colon) of the same compound?
A: 7.81 µM

Q: And the TGI (SW-620 colon)?
A: > 100 µM

Q: And the GI50 (T-47D breast)?
A: 7.98 µM

Q: And the TGI (T-47D breast)?
A: > 100 µM

Q: And the GI50 (TK-10 renal)?
A: 38.8 µM

Q: What about the TGI (TK-10 renal) of the same compound?
A: > 100 µM

Q: And the GI50 (U251 CNS)?
A: 12.6 µM

Q: And the TGI (U251 CNS)?
A: > 100 µM

Q: What about the GI50 (UACC-257 melanoma) of the same compound?
A: 4.11 µM

Q: And the TGI (UACC-257 melanoma)?
A: > 100 µM

Q: What about the GI50 (UACC-62 melanoma) of the same compound?
A: 8.67 µM

Q: What about the TGI (UACC-62 melanoma) of the same compound?
A: > 100 µM

Q: And the GI50 (UO-31 renal)?
A: 16.5 µM

Q: What about the TGI (UO-31 renal) of the same compound?
A: > 100 µM
